The test has as its target T1, Recombinant human H-PGDS (Homo sapiens, UniProt O60760).
T1 construct: made in house; host or cells: E. coli
The test is described as follows: H-PGDS inhibitory activity (prostaglandin D2 production from prostaglandin H2, measured by LC-MS/MS). The test is classed as biochemical. The note with it: recombinant human H-PGDS 1.0 nM expressed in E. coli; prostaglandin H2 25 μM; preincubated 15 minutes on ice, reacted on ice for 1 minute; concentration that inhibits prostaglandin D2 production by 50%. A digest of the protocol:
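Recombinant human H-PGDS (E. coli-expressed, 1.0 nM final) preincubated with compound 15 min on ice in 20 mM Tris-HCl pH 8.0, 2 mM MgCl2, 2 mM GSH, 0.5 mg/mL γ-globulin. Reaction with 25 µM PGH2 run 1 min on ice, stopped with FeCl2/citric acid, PGD2 quantified by LC-MS/MS. Activity expressed as % of DMSO control after subtracting non-enzymatic PGD2.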

Each structure is given as a SMILES string.

T1 sequence (O60760 whole entry): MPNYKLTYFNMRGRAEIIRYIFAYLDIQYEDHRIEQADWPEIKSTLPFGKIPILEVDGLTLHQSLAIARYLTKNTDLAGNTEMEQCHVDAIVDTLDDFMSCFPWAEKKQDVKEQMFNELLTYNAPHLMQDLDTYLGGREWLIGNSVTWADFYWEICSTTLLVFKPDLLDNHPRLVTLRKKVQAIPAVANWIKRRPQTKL

Consider `O=C(NC1CCN(c2nnnn2C2CC2)CC1)c1ccc(-c2nccc3occc23)cc1` [Example 243, N-[1-(1-cyclopropyl-1H-tetrazol-5-yl)piperidin-4-yl]-4-(furo[3,2-c]pyridin-4-yl)benzamide], for which the IC50 was 2 nM.

On to `COc1ccc(CN2CCC(NC(=O)c3ccc(-c4nccc5occc45)cc3)CC2)cc1Cl` [Example 244, N-[1-(3-chloro-4-methoxybenzyl)piperidin-4-yl]-4-(furo[3,2-c]pyridin-4-yl)benzamide], for which the IC50 worked out at 4 nM.

Take `CC(C)(O)C(=O)N1CCC(NC(=O)c2ccc(-c3nccc4occc34)cc2)CC1` [Example 245, 4-(furo[3,2-c]pyridin-4-yl)-N-[1-(2-hydroxy-2-methylpropanoyl)piperidin-4-yl]benzamide]: the IC50 is 1.4 nM.

As for `O=C(NC1CCN(C(=O)CC(F)(F)F)CC1)c1ccc(-c2nccc3occc23)cc1` [Example 246, 4-(furo[3,2-c]pyridin-4-yl)-N-[1-(3,3,3-trifluoropropanoyl)piperidin-4-yl]benzamide], the IC50 came out at 1.8 nM.

For the molecule `N#CN1CCC(NC(=O)c2ccc(-c3nccc4occc34)cc2)CC1` [Example 247, N-(1-cyanopiperidin-4-yl)-4-(furo[3,2-c]pyridin-4-yl)benzamide], the IC50 was 2.3 nM.

Take `O=C(NC1CCN(c2nn[nH]n2)CC1)c1ccc(-c2nccc3occc23)cc1` [Example 248, N-[1-(1H-tetrazol-5-yl)piperidin-4-yl]-4-(furo[3,2-c]pyridin-4-yl)benzamide]: the IC50 was found to be 4.4 nM.

On to `Cn1nnc(N2CCC(NC(=O)c3ccc(-c4nccc5occc45)cc3)CC2)n1` [Example 249, 4-(furo[3,2-c]pyridin-4-yl)-N-[1-(2-methyl-2 H-tetrazol-5-yl)piperidin-4-yl]benzamide], for which the IC50 came out at 1.6 nM.

Consider `Cn1nccc1N1CCC(NC(=O)c2ccc(-c3nccc4occc34)cc2)CC1` [Example 250, 4-(furo[3,2-c]pyridin-4-yl)-N-[1-(1-methyl-1H-pyrazol-5-yl)piperidin-4-yl]benzamide], for which the IC50 is 3.2 nM.

Consider `Cn1ccnc1N1CCC(NC(=O)c2ccc(-c3nccc4occc34)cc2)CC1` [Example 251, 4-(furo[3,2-c]pyridin-4-yl)-N-[1-(1-methyl-1H-imidazol-2-yl)piperidin-4-yl]benzamide], for which the IC50 came out at 2 nM.

Regarding `Cn1cc(N2CCC(NC(=O)c3ccc(-c4nccc5occc45)cc3)CC2)cn1` [Example 252, 4-(furo[3,2-c]pyridin-4-yl)-N-[1-(1-methyl-1H-pyrazol-4-yl)piperidin-4-yl]benzamide], the IC50 amounted to 1.2 nM.

Take `Cn1cnc(CO)c1N1CCC(NC(=O)c2ccc(-c3nccc4occc34)cc2)CC1` [Example 253, 4-(furo[3,2-c]pyridin-4-yl)-N-{1-[4-(hydroxymethyl)-1-methyl-1H-imidazol-5-yl]piperidin-4-yl}benzamide]: the IC50 turned out to be 1.1 nM.

For `CCOC(=O)c1cnc(N2CCC(NC(=O)c3ccc(-c4nccc5occc45)cc3)CC2)o1` [Example 254, ethyl 2-{4-[4-(furo[3,2-c]pyridin-4-yl)benzamide]piperidin-1-yl]oxazole-5-carboxylate], the IC50 is 4 nM.

In the case of `O=C(NC1CCN(c2ncc(CO)o2)CC1)c1ccc(-c2nccc3occc23)cc1` [Example 255, 4-(furo[3,2-c]pyridin-4-yl)-N-{1-[5-(hydroxymethyl)oxazol-2-yl]piperidin-4-yl}benzamide], the IC50 was determined as 1.5 nM.

Turning to `O=C(N[C@H]1CC[C@H](O)CC1)c1ccc(-c2nccc3occc23)cc1` [Example 256, 4-(furo[3,2-c]pyridin-4-yl)-N-(trans-4-hydroxycyclohexyl)benzamide], the IC50 is 2.6 nM.

In the case of `O=C(N[C@H]1CC[C@H](C2(O)CC2)CC1)c1ccc(-c2nccc3occc23)cc1` [Example 257, 4-(furo[3,2-c]pyridin-4-yl)-N-[trans-4-(1-hydroxycyclopropyl)cyclohexyl]benzamide], the IC50 worked out at 1.6 nM.

For `O=C(N[C@H]1CC[C@H](OCC2(O)CC2)CC1)c1ccc(-c2nccc3occc23)cc1` [Example 258, 4-(furo[3,2-c]pyridin-4-yl)-N-{trans-4-[(1-hydroxycyclopropyl)methoxy]cyclohexyl}benzamide], the IC50 was 0.93 nM.

As to `C[C@]1(O)CC[C@H](NC(=O)c2ccc(-c3nccc4occc34)cc2)CC1` [Example 259, 4-(furo[3,2-c]pyridin-4-yl)-N-(trans-4-hydroxy-4-methylcyclohexyl)benzamide], the IC50 stood at 2 nM.

In the case of `O=C(NC12CCC(O)(CC1)CC2)c1ccc(-c2nccc3occc23)cc1` [Example 260, 4-(furo[3,2-c]pyridin-4-yl)-N-(4-hydroxybicyclo[2.2.2]octan-1-yl)benzamide], the IC50 was 1.9 nM.

Take `COC(=O)[C@H]1CC[C@H](NC(=O)c2ccc(-c3nccc4occc34)cc2)CC1` [Example 261, Methyl trans-4-[4-(furo[3,2-c]pyridin-4-yl)benzamide]cyclohexane-1-carboxylate]: the IC50 came out at 1.6 nM.

On to `O=C(N[C@H]1CC[C@@H](O)CC1)c1ccc(-c2nccc3occc23)cc1` [Example 262, 4-(furo[3,2-c]pyridin-4-yl)-N-(cis-4-hydroxycyclohexyl)benzamide], for which the IC50 worked out at 2.5 nM.

For `O=C(N[C@H]1CC[C@H](OC(F)F)CC1)c1ccc(-c2nccc3occc23)cc1` [Example 263, N-[trans-4-(difluoromethoxy)cyclohexyl]-4-(furo[3,2-c]pyridin-4-yl)benzamide], the IC50 was found to be 4.2 nM.

Regarding `O=C(N[C@H]1CC[C@@](O)(C(F)(F)F)CC1)c1ccc(-c2nccc3occc23)cc1` [Example 264, 4-(furo[3,2-c]pyridin-4-yl)-N-[trans-4-hydroxy-4-(trifluoromethyl)cyclohexyl]benzamide], the IC50 came out at 3.5 nM.

Take `O=C(N[C@H]1C[C@@H](O)C1)c1ccc(-c2nccc3occc23)cc1` [Example 269, 4-(furo[3,2-c]pyridin-4-yl)-N-(cis-3-hydroxycyclobutyl)benzamide]: the IC50 was 5.2 nM.

Regarding `O=C(N[C@H]1C[C@H](O)C1)c1ccc(-c2nccc3occc23)cc1` [Example 270, 4-(furo[3,2-c]pyridin-4-yl)-N-(trans-3-hydroxycyclobutyl)benzamide], the half-maximal inhibitory concentration (IC50) was 6.4 nM.

As to `O=C(NC12CC3CC(CC(O)(C3)C1)C2)c1ccc(-c2nccc3occc23)cc1` [Example 271, 4-(furo[3,2-c]pyridin-4-yl)-N-(3-hydroxyadamantan-1-yl)benzamide], the IC50 stood at 1.2 nM.

In the case of `O=C(NC1C2CC3CC1CC(O)(C3)C2)c1ccc(-c2nccc3occc23)cc1` (stereo not drawn) [Example 272, 4-(furo[3,2-c]pyridin-4-yl)-N-(trans-5-hydroxyadamantan-2-yl)benzamide], the IC50 turned out to be 2.4 nM.

As to `CC1(NC(=O)c2ccc(-c3nccc4occc34)cc2)CCC(O)CC1` (centres unmarked) [Example 276, 4-(furo[3,2-c]pyridin-4-yl)-N-(4-hydroxy-1-methylcyclohexyl)benzamide], the IC50 stood at 12 nM.

Consider `CC1(C)CC(NC(=O)c2ccc(-c3nccc4occc34)cc2)CCC1O` (centres unmarked) [Example 277, 4-(furo[3,2-c]pyridin-4-yl)-N-(4-hydroxy-3,3-dimethylcyclohexyl)benzamide], for which the IC50 came out at 3.5 nM.

Take `O=C(NC12CC(O)(C1)C2)c1ccc(-c2nccc3occc23)cc1` [Example 278, 4-(furo[3,2-c]pyridin-4-yl)-N-(3-hydroxybicyclo[1.1.1]pentan-1-yl)benzamide]: the IC50 was determined as 3.3 nM.

With `CC1(C)CC(O)CC(NC(=O)c2ccc(-c3nccc4occc34)cc2)C1` (centres unmarked) [Example 280, 4-(furo[3,2-c]pyridin-4-yl)-N-(5-hydroxy-3,3-dimethylcyclohexyl)benzamide], the IC50 is 2.2 nM.

On to `O=C(NC1CC2CCC(C1)C2O)c1ccc(-c2nccc3occc23)cc1` (centres unmarked) [Example 281, 4-(furo[3,2-c]pyridin-4-yl)-N-(8-hydroxybicyclo[3.2.1]octan-3-yl)benzamide], for which the IC50 turned out to be 2 nM.

`O=C(N[C@@H]1C[C@H]2C[C@@H](O)C[C@H]2C1)c1ccc(-c2nccc3occc23)cc1` [Example 282, 4-(furo[3,2-c]pyridin-4-yl)-N-[(2r,3aR,5r,6aS)-5-hydroxyoctahydropentalen-2-yl]benzamide]: the IC50 worked out at 1.3 nM.

On to `C[C@]1(O)CC[C@@H](NC(=O)c2ccc(-c3nccc4occc34)cc2)CC1` [Example 283, 4-(furo[3,2-c]pyridin-4-yl)-N-(cis-4-hydroxy-4-methylcyclohexyl)benzamide], for which the IC50 is 1.7 nM.

For the molecule `O=C(NC1CCC2(CC1)COC2)c1ccc(-c2nccc3occc23)cc1` [Example 284, 4-(furo[3,2-c]pyridin-4-yl)-N-(2-oxaspiro[3.5]nonan-7-yl)benzamide], the IC50 worked out at 1.7 nM.

For `CO[C@H]1CC[C@H](NC(=O)c2ccc(-c3nccc4occc34)cc2)CC1` [Example 285, 4-(furo[3,2-c]pyridin-4-yl)-N-(trans-4-methoxycyclohexyl)benzamide], the IC50 is 2 nM.

On to `[2H]C([2H])([2H])O[C@H]1CC[C@H](NC(=O)c2ccc(-c3nccc4occc34)cc2)CC1` [Example 286, 4-(furo[3,2-c]pyridin-4-yl)-N-[trans-4-(methoxy-d3)cyclohexyl]benzamide], for which the IC50 was 1 nM.

With `CCO[C@H]1CC[C@H](NC(=O)c2ccc(-c3nccc4occc34)cc2)CC1` [Example 287, N-(trans-4-ethoxycyclohexyl)-4-(furo[3,2-c]pyridin-4-yl)benzamide], the concentration for half-maximal inhibition (IC50) worked out at 0.87 nM.

For `CC(C)O[C@H]1CC[C@H](NC(=O)c2ccc(-c3nccc4occc34)cc2)CC1` [Example 288, 4-(furo[3,2-c]pyridin-4-yl)-N-(trans-4-isopropoxycyclohexyl)benzamide], the IC50 amounted to 1.3 nM.

The record behind these values is patent US20230339937A1, “CONDENSED RING COMPOUNDS THAT INHIBIT H-PGDS” (SATO PHARMACEUTICAL CO., LTD., priority 2020, published 2023).
